Laboratory results reported in PMC7441537 (Journal of medicinal chemistry, 2019).
Converted amounts (≈) assume the structure as drawn.

What was measured:
HIV-1 F227L+V106A = format: cell-based; conditions: MT-4 cells; CC50/EC50
WT HIV-1 (IIIB) = conditions: MT-4 cells
HIV-1 E138K = format: cell-based; conditions: MT-4 cells; CC50/EC50
HIV-1 Y181C = format: cell-based; conditions: MT-4 cells; CC50/EC50
HIV-1 Y188L = format: cell-based; conditions: MT-4 cells; CC50/EC50
Kunming mice = assay: Acute; format: in vivo; conditions: 800 mg/kg, 2 weeks, vs control group
HIV-1 K103N = format: cell-based; conditions: MT-4 cells; CC50/EC50
[1] = system: HIV-1 strains carrying single NNRTI-resistant mutations; format: cell-based; conditions: EC50 mutant/EC50 WT
[2] = system: NNRTI-resistant strain K103N+Y181C (RES056); conditions: MT-4 cells
HIV-1 L100I = format: cell-based; conditions: MT-4 cells; CC50/EC50
in vitro = conditions: human
mice = assay: Subacute toxicity with HE staining of organs; conditions: 50 mg/kg, heart, liver, spleen, lungs, kidneys
[3] = cited from earlier work
[4] = Aqueous solubility measured by HPLC; format: physicochemical; conditions: aqueous solution, pH 2
RES056 (K103N+Y181C) = conditions: read-out: EC50 RES056 (previously reported); cited from earlier work

Compound	SI F227L+V106A (HIV-1 F227L+V106A)	SI IIIB (CC50/EC50) (WT HIV-1 (IIIB))	SI E138K (HIV-1 E138K)	SI Y181C (HIV-1 Y181C)	SI Y188L (HIV-1 Y188L)	SI K103N (HIV-1 K103N)	SI RES056 (CC50/EC50) [2]	SI L100I (HIV-1 L100I)	aqueous solubility (previously reported) [3]	EC50 (RES056 (K103N+Y181C)) [µM]	also measured
Cc1cc(C#N)cc(C)c1Oc1nc(NC2CCN(Cc3ccc(C(N)=O)cc3)CC2)nc2c1COC2 [13c2, 4-((4-((4-(4-Cyano-2,6-dimethylphenoxy)-5,7-dihydrofuro-[3,4-d]pyrimidin-2-yl)amino)piperidin-1-yl)methyl)benzamide]	> 13158	>156250	> 35714	> 56818	> 29762	> 277778	>6039	> 104167	–	–	behavior, acute toxicity (Kunming mice): no significant behavior abnormalities; resistance FC values range for single mutant strains [1]: 0.6–5.3
Cc1cc(C#N)cc(C)c1Oc1nc(NC2CCN(Cc3ccc(S(N)(=O)=O)cc3)CC2)nc2c1SCCC2 [13f1, 4-((4-((4-(4-Cyano-2,6-dimethylphenoxy)-7,8-dihydro-6H-thiopyrano[3,2-d]pyrimidin-2-yl)amino)piperidin-1-yl)methyl)benzenesulfonamide]	≥ 6645	≥54889	≥ 17435	≥ 14250	≥ 18525	≥ 28500	≥3650	≥ 11488	–	–	–
Cc1cc(C#N)cc(C)c1Oc1nc(NC2CCN(Cc3cccc(C(N)=O)c3)CC2)nc2c1SCCC2 [13f5, 3-((4-((4-(4-Cyano-2,6-dimethylphenoxy)-7,8-dihydro-6H-thiopyrano[3,2-d]pyrimidin-2-yl)amino)piperidin-1-yl)methyl)benzamide]	–	–	–	–	–	–	–	–	–	–	CC50 (in vitro): > 4.59 µM
Cc1cc(C#N)cc(C)c1Oc1nc(Nc2ccc(C#N)cc2)nc(N)c1Br [ETV, etravirine]	–	–	–	–	–	–	–	–	less than 1 μg/mL	0.017	organ toxicity by HE staining (mice): alveolar interstitial thickening and alveolar hemorrhage (the blue arrow) in the lung and proximal convoluted tubule edema (the red circle) in the kidney; solubility [4]: 127 µg/mL (≈ 292 µM)
Cc1cc(C#N)cc(C)c1Oc1nc(NC2CCN(Cc3ccc(S(N)(=O)=O)cc3)CC2)nc2ccsc12 [compound 3]	–	–	–	–	–	–	–	–	less than 1 μg/mL	0.0306	–
